What was measured:
FAAH [1] = molecular target: T1, FAAH (Mus musculus, UniProt O08914); experiment: FAAH activity in brain homogenate after oral dosing of mice; type: in vivo; details: 8 h, remaining activity vs controls, low value = strong inhibitor, read-out: FAAH Activity (%) Br h
T1 construct: A fragment of liver and brain without cerebellum were removed and put in plastic vials containing membrane buffer; from tissue; host or cells: brain (without cerebellum) and liver homogenates of male NMRI mice
T1 sequence (O08914 1-579): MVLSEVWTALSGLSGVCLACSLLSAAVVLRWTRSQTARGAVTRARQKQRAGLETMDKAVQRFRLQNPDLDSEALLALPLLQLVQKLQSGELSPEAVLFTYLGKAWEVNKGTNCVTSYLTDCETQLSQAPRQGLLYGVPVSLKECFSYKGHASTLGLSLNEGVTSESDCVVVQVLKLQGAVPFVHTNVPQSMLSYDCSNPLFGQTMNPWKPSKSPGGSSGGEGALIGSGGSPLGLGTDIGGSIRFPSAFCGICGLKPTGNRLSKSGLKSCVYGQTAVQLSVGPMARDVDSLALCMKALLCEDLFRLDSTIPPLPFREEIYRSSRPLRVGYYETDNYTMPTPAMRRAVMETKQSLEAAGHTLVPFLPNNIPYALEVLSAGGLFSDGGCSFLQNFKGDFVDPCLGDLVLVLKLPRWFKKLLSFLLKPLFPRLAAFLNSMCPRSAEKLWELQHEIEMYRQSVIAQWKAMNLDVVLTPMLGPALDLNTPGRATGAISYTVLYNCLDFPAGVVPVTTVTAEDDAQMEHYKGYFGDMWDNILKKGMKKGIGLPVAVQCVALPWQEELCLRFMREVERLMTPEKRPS
Procedure: (§1) In vivo testing was performed according to the protocol described below. BRh (brain homogenate) indicates inhibition in central nervous tissue, in this case, brain, and LVh (liver homogenate) indicates inhibition in peripheral tissue, in this case, liver. The controls were the reaction mix minus the test compounds. Therefore, a low value for the test compound indicates a strong inhibitor.
(§2) The animals used for experiments were male NMRI mice (weighing 27-44 g) obtained from Interfauna Ibérica (Spain). Mice were kept 5 per cage, under controlled environmental conditions (12 hr light/dark cycle and room temperature 22±1° C.). Food and tap water were allowed ad libitum and the experiments were all carried out during daylight hours.
(§3) Animals were always fasted overnight before administration of compounds.
(§4) Animals were administered the appropriate dose of the compound of the invention via oral route (8 ml/kg; compound suspended in 0.5% carboxymethylcellulose (CMC) or solubilized in water) or vehicle (controls) using animal feeding stainless steel curve needles (Perfectum, U.S.A.). Fifteen minutes before sacrifice animal were anesthetized with pentobarbital 60 mg/kg administered intraperitoneally. A fragment of liver and brain without cerebellum were removed and put in plastic vials containing membrane buffer (3 mM MgCl2, 1 mM EDTA, 50 mM Tris HCl pH 7.4). Tissues were stored at −30° C. until analysis.
Anandamide [ethanolamine-1-^3H-] (40-60 Ci/mmol) was obtained from American Radiochemicals. All other reagents were obtained from Sigma-Aldrich. […]
(§5) Total protein in tissues was determined with the BioRad Protein Assay (BioRad) using a standard curve of BSA (50-250 μg/ml).
Reaction mix (total volume of 200 μl) contained: 2 μM AEA (2 μM AEA+5 nM ^3H-AEA), 0.1% fatty acid free BSA, 15 μg (brain) or 5 μg (liver) protein, in 1 mM EDTA, 10 mM Tris pH 7.6. […] Counts per minute (cpm) were determined in a MicrobetaTriLux scintillation counter. […]
(§6) The percentage of remaining enzymatic activity was calculated with respect to controls and after blank subtraction.

FAAH [2] = molecular target: T1, FAAH; experiment: FAAH activity in liver homogenate after oral dosing of mice; type: in vivo; details: for Peripheral Selectivity: FAAH activity in the liver divided by FAAH activity in the brain (3 mg/kg, 8 h, po), lower = peripherally more selective; for activity at 1 mg/kg / activity at 0.3 mg/kg / activity at 3 mg/kg / activity at 0.1 mg/kg / activity at 0.01 mg/kg / activity at 0.03 mg/kg: mouse, po; for activity at 3 mg/kg: liver homogenate, remaining activity vs controls, read-out: FAAH Activity (%) Lv h
Procedure: as §1, §2, §3, §4
Anandamide [ethanolamine-1-^3H-] (40-60 Ci/mmol) was obtained from American Radiochemicals. All other reagents were obtained from Sigma-Aldrich. Optiphase Supermix was obtained from Perkin Elmer and activated charcoal was obtained from Sigma-Aldrich.
Tissues were thawed on ice and were homogenized in 10 volumes of membrane buffer (3 mM MgCl2, 1 mM EDTA, 50 mM Tris HCl pH 7.4) with either Potter-Elvejhem (brains—8 strokes at 500 rpm) or Heidolph Diax (livers—2 strokes at position 5 for 20 sec with 30 sec pauses).
as §5
Reaction mix (total volume of 200 μl) contained: 2 μM AEA (2 μM AEA+5 nM ^3H-AEA), 0.1% fatty acid free BSA, 15 μg (brain) or 5 μg (liver) protein, in 1 mM EDTA, 10 mM Tris pH 7.6. After a 15 min pre-incubation period at 37° C., reaction was started by the addition of the substrate solution (cold AEA+radiolabelled AEA+BSA). Reaction was carried out for 10 min (brain) or 7 min (liver) before termination by the addition of 400 μl activated charcoal suspension (8 g charcoal in 32 ml 0.5 M HCl in continuous agitation). After a 30 min incubation period at room temperature with agitation, charcoal was sedimented by centrifugation in microfuge (10 min at 13000 rpm). 200 μl of the supernatant were added to 800 μl Optiphase Supermix scintillation cocktail previously distributed in 24-well plates. Counts per minute (cpm) were determined in a MicrobetaTriLux scintillation counter.
In each assay blanks (without protein) were prepared.
as §6

FAAH [3] = molecular target: T2, FAAH (Rattus norvegicus, UniProt P97612); experiment: FAAH activity in liver homogenate after oral dosing of rats; type: in vivo; details: gavage; for activity at 0.1 mg/kg: rat, po
T2 construct: Liver biopsies and brain samples (without cerebellum) were collected and placed in a plastic vial containing membrane buffer; from tissue; host or cells: liver homogenate of male Wistar rats
T2 sequence (P97612 1-579): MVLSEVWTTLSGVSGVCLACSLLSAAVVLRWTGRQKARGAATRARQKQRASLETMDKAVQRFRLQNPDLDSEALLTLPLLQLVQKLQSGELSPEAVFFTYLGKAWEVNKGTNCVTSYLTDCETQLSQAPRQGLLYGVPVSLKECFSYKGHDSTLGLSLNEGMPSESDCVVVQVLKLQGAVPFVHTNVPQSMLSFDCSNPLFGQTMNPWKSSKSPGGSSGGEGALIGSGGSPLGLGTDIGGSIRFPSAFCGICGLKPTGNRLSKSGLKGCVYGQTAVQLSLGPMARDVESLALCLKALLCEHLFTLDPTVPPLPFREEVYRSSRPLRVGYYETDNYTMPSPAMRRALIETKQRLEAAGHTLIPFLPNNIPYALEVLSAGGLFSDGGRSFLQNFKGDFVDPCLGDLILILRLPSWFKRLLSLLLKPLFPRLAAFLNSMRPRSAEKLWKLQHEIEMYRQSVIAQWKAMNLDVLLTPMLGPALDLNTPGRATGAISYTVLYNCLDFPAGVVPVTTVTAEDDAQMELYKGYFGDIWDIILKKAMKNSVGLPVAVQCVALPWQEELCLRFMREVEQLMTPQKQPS
Procedure: as §1
Male Wistar rats (body weight range: 190-230 g) were obtained from Harlan (Spain). Rats were kept 5 per cage, under controlled environmental conditions (12 hr light/dark cycle and room temperature 22±1° C.). Food and tap water were allowed ad libitum and the experiments were all carried out during daylight hours.
Rats were administered the appropriate dose of compound of the invention via gavage (administration volume=4 ml/kg body weight) using animal feeding stainless steel curve needles (Perfectum, U.S.A.). Vehicle was 0.5% CMC in Milli Q water. Rats were fasted at least 15 h before experiments.
Fifteen minutes before sacrifice animals were anesthetized with pentobarbital i.p. 60 mg/kg body weight. Liver biopsies and brain samples (without cerebellum) were collected and placed in a plastic vial containing membrane buffer (3 mM MgCl2, 1 mM EDTA, 50 mM Tris HCl pH 7.4) and, in the case of liver samples, glass beads (2.5 mm BioSpec Products). Tissues were stored at −20° C. until analysis.
Anandamide [ethanolamine-1-3H-] was obtained from American Radiochemicals (specific activity of 60 Ci/mmol). All other reagents were obtained from Sigma-Aldrich. Optiphase Supermix was obtained from Perkin Elmer.
Tissues were thawed on ice; livers were homogenized in a Precellys 24 Dual Tissue Homogenizer (Bertin Technologies) for 2 cycles of 5 sec with an interval of 5 min in ice and brains were homogenized with Heidolph Silent Crusher M (probe 8 F/M) for about 45 sec at maximum velocity. Total protein in homogenates was determined with the BioRad Protein Assay (BioRad) using a standard curve of BSA (50-250 μg/ml).
Reaction mix (total volume of 200 μl) contained: 2 μM AEA (2 μM AEA+5 nM 3H-AEA), 0.1% fatty acid free BSA, 15 μg (brain) or 1.5 μg (liver) protein, in 1 mM EDTA, 10 mM Tris pH 7.6. After 15 minutes pre-incubation at 37° C. reaction was started by the addition of the substrate solution (cold AEA+radiolabelled AEA+BSA). Reaction was carried out for 7 minutes for liver samples and for 10 min for brain samples and terminated by addition of 400 μL chloroform:methanol (1:1, v/v) solution. Reaction samples were vortex twice, left on ice for 5 minutes and then centrifuged in microfuge (7 minutes, 7000 rpm). Two-hundred μl of supernatants were added to 800 μl Optiphase Supermix scintillation cocktail previously distributed in 24-well plates. Counts per minute (cpm) were determined in a Microbeta TriLux scintillation counter. In each assay blank samples (without protein) were prepared. The percentage of remaining enzymatic activity was calculated in respect to controls and after blank subtraction.

[4] = CYPs metabolic stability assay in MLM; type: in vitro ADME, mouse; details: 1 h, 50 μM compound; for Metabolic Stability (% of Remaining) Mouse CYP+: with NADPH; for Metabolic Stability (% of Remaining) Mouse CYP−: without NADPH (control value)
Procedure: (§7) Stability of the test compounds was performed in MLM (mouse liver microsomes) or HLM (human liver microsomes) in the presence and in the absence of NADPH.
(§8) The stability was measured using the incubation mixture (100 μl total volume) contained 1 mg/ml total protein, MgCl2 5 mM and 50 mM K-phosphate buffer. Samples were incubated in the presence and in the absence of NADPH 1 mM. Reactions were pre-incubated 5 min and the reaction initiated with the compound under test (5 μM for HLM and 50 μM for MLM). Samples were incubated for 60 min in a shaking water bath at 37° C. The reaction was stopped by adding 100 μl of acetonitrile. Samples were then centrifuged, filtered and supernatant injected in HLPC-MSD. Test compounds were dissolved in DMSO and the final concentration of DMSO in the reaction was below 0.5% (v/v). At T0 acetonitrile was added before adding the compound. All experiments were performed with samples in duplicate.
(§9) The stability data are given as % of remaining compound after 1 h exposure to MLM or HLM. 100% means no metabolic reaction at all and 0% corresponds to full enzymatic degradation. “CYP−” refers to the absence of cofactor (NADPH) which is essential for CYP metabolic reactions. Therefore “CYP−” can be regarded as control value. “CYP+” refers to the presence of cofactor and the enzymatic degradation may take place according to the stability of the test compound.

[5] = CYPs metabolic stability assay in HLM; type: in vitro ADME, human; details: 1 h, 5 μM compound; for Metabolic Stability (% of Remaining) Human CYP+: with NADPH; for Metabolic Stability (% of Remaining) Human CYP−: without NADPH (control value)
Procedure: as §7, §8, §9

activity at 3 mg/kg (FAAH [1]) [%]	Peripheral Selectivity (FAAH [2])	activity at 1 mg/kg (FAAH [2]; 1 h) [%]	activity at 0.3 mg/kg (FAAH [2]; 8 h) [%]	activity at 3 mg/kg (FAAH [2]; 8 h) [%]	FAAH Activity (%) rat Liver (FAAH [3]; Dose: 1 mg/k9, 1 h) [%]	FAAH Activity (%) rat Liver (FAAH [3]; Dose: 1 mg/k9, 8 h) [%]	FAAH Activity (%) rat Liver (FAAH [3]; Dose: 1 mg/k9, 24 h) [%]	Metabolic Stability (% of Remaining) Mouse CYP+ [4] [%]	Metabolic Stability (% of Remaining) Mouse CYP− [4] [%]	Metabolic Stability (% of Remaining) Human CYP+ [5] [%]	Metabolic Stability (% of Remaining) Human CYP− [5] [%]	melting point [°C]	activity at 0.1 mg/kg (FAAH [2]; 1 h) [%]	activity at 0.01 mg/kg (FAAH [2]; 8 h) [%]	activity at 0.03 mg/kg (FAAH [2]; 8 h) [%]	activity at 0.1 mg/kg (FAAH [2]; 8 h) [%]	activity at 0.1 mg/kg (FAAH [3]; 1 h) [%]	activity at 0.1 mg/kg (FAAH [3]; 8 h) [%]	SMILES
117	0.042	8.5	36.1	4.9	9.8	4.8	22.7	93	100	96	102	128							CN(C(=O)n1cnc(-c2cccc(NS(N)(=O)=O)c2)c1)C1CCOCC1 [Compound 1, N-Methyl-4-(3-(sulfamoylamino)phenyl)-N-(tetrahydro-2H-pyran-4-yl)-1H-imidazole-1-carboxamide]
81.7	0.018	2.3	5.6	1.5	25.7	18.2	17.8	86	83	100	94	232	21.9	48.2	42.9	6.7	78.2	59.1	CCC(=O)N1CCC(N(C)C(=O)n2cnc(-c3ccc(O)c(C)c3)c2)CC1 [Compound 2, 4-(4-Hydroxy-3-methylphenyl)-N-methyl-N-(1-propionylpiperidin-4-yl)-1H-imidazole-1-carboxamide]
91.7	0.020		7.2	1.8				98	91	99	102	204	37.9	56.3	53	10.7	83.5	62.5	Cc1cc(-c2cn(C(=O)N(C)C3CCN(C(=O)C4CC4)CC3)cn2)ccc1O [Compound 3, N-(1-(Cyclopropanecarbonyl)piperidin-4-yl)-4-(4-hydroxy-3-methylphenyl)-N-methyl-1H-imidazole-1-carboxamide]

From patent US10501447B2, “Imidazolecarboxamides and their use as FAAH inhibitors” (BIAL-PORTELA & Ca, S.A., priority 2013, dated 2019)
